From patent publication US7919489B2, “Heterocyclyamide-substituted imidazoles” (Aicuris GmbH & Co. KG, priority 2005, dated 2011)

Assays:
HCMV = assay: Anti-HCMV cytopathogenicity test (inhibition of CPE); format: cell-based, human cytomegalovirus; conditions: for EC50: Human betaherpesvirus 5, 144 h, concentration inhibiting the CPE by 50% vs untreated virus control, HCMV-infected NHDF cells, 6 days
Method: Anti-HCMV (Anti-Human Cytomegalovirus) Cytopathogenicity Tests The test compounds are employed as 50 millimolar (mM) solutions in dimethyl sulfoxide (DMSO). Ganciclovir, foscarnet and cidofovir are used as reference compounds. After the addition of in each case 2 μl of the 50, 5, 0.5 and 0.05 mM DMSO stock solutions to 98 μl portions of cell culture medium in row […] for duplicate determinations, 1:2 dilutions are carried out with 50 μl portions of medium up to row 11 of the 96-well plate. The wells in rows 1 and 12 each contain 50 μl of medium. Then 150 μl of a suspension of 1×10^4 cells (human prepuce fibroblasts [NHDF]) are pipetted into each of the wells (row 1=cell control) and, in rows 2-12, a mixture of HCMV-infected and uninfected NHDF cells (M.O.I.=0.001-0.002), i.e. 1-2 infected cells per 1000 uninfected cells. Row 12 (without substance) serves as virus control. The final test concentrations are 250-0.0005 μM. The plates are incubated at 37° C./5% CO2 for 6 days, i.e. until all the cells in the virus controls are infected (100% cytopathogenic effect [CPE]). The wells are then fixed and stained by adding a mixture of formalin and Giemsa's dye (30 minutes), washed with double-distilled water and dried in a drying oven at 50° C. The plates are then assessed visually using an overhead microscope (Plaque Multiplier from Technomara). The following data can be acquired from the test plates: EC50 (HCMV)=substance concentration in μM which inhibits the CPE (cytopathic effect) by 50% compared with the untreated virus control; SI (selectivity index)=CC50 (NHDF)/EC50 (HCMV).

[1] = Anti-HCMV cytopathogenicity test: cytostatic effects on NHDF cells; format: cell-based; conditions: human, NHDF cells (human prepuce fibroblasts), maximum substance concentration with no visible cytostatic effects vs untreated cell control
Method: Anti-HCMV (Anti-Human Cytomegalovirus) Cytopathogenicity Tests The test compounds are employed as 50 millimolar (mM) solutions in dimethyl sulfoxide (DMSO). Ganciclovir, foscarnet and cidofovir are used as reference compounds. After the addition of in each case 2 μl of the 50, 5, 0.5 and 0.05 mM DMSO stock solutions to 98 μl portions of cell culture medium in row […] for duplicate determinations, 1:2 dilutions are carried out with 50 μl portions of medium up to row 11 of the 96-well plate. The wells in rows 1 and 12 each contain 50 μl of medium. Then 150 μl of a suspension of 1×10^4 cells (human prepuce fibroblasts [NHDF]) are pipetted into each of the wells (row 1=cell control) and, in rows 2-12, a mixture of HCMV-infected and uninfected NHDF cells (M.O.I.=0.001-0.002), i.e. 1-2 infected cells per 1000 uninfected cells. Row 12 (without substance) serves as virus control. The final test concentrations are 250-0.0005 μM. The plates are incubated at 37° C./5% CO2 for 6 days, i.e. until all the cells in the virus controls are infected (100% cytopathogenic effect [CPE]). The wells are then fixed and stained by adding a mixture of formalin and Giemsa's dye (30 minutes), washed with double-distilled water and dried in a drying oven at 50° C. The plates are then assessed visually using an overhead microscope (Plaque Multiplier from Technomara). The following data can be acquired from the test plates: CC50 (NHDF)=maximum substance concentration in μM at which no visible cytostatic effects on the cells are evident by comparison with the untreated cell control;

| SMILES | SI HCMV (selectivity index = CC50 (NHDF)/EC50 (HCMV)) (HCMV) | EC50 (HCMV) | CC50 at 6 days [1] |
| --- | --- | --- | --- |
| Cn1cc(NC(=O)Nc2ccc(OC(F)(F)F)cc2)nc1C(=O)N1CCN(c2ccccn2)CC1 [Example 1, N-{1-Methyl-2-[(4-pyridin-2-ylpiperazin-1-yl)carbonyl]-1H-imidazol-4-yl}-N′-[4-(trifluoromethoxy)phenyl]urea] | 14500 | 3 nM | 43.5 µM |
| Cc1ccc(N2CCN(C(=O)c3nc(NC(=O)Nc4ccc(OC(F)(F)F)cc4)cn3C)CC2)nc1 [Example 2, N-(1-Methyl-2-{[4-(5-methylpyridin-2-yl)piperazin-1-yl]carbonyl}-1H-imidazol-4-yl)-N′-[4-(trifluoromethoxy)phenyl]urea] | 14530 | 0.75 nM | 10.9 µM |
| Cn1cc(NC(=O)Nc2ccc(OC(F)(F)F)cc2)nc1C(=O)N1CCN(c2ccc(C#N)cn2)CC1 [Example 25] | 2600 | 4.8 nM | 12.5 µM |
| COc1ccc(N2CCN(C(=O)c3nc(NC(=O)Nc4ccc(OC(F)(F)F)cc4)cn3C)CC2)nc1 [Example 29] | 35790 | 0.95 nM | 34 µM |
| Cc1ccc(N2CCN(C(=O)c3nc(NC(=O)Nc4ccc(OC(F)(F)F)cc4)cn3CC3CC3)CC2)nc1 [Example 32] | 6240 | 0.85 nM | 5.3 µM |
